From BindingDB's records for doi:10.1016/j.bmcl.2005.12.051 (Procter & Gamble Pharmaceuticals, 2006) come the findings set out here.

A value given as a limit tells only on which side of the number the result lay.

The target in the experiment is T1, Tyrosine-protein phosphatase non-receptor type 1 [1-298] (Homo sapiens, UniProt P18031).
T1 construct: 1-298
T1 sequence (P18031 whole entry): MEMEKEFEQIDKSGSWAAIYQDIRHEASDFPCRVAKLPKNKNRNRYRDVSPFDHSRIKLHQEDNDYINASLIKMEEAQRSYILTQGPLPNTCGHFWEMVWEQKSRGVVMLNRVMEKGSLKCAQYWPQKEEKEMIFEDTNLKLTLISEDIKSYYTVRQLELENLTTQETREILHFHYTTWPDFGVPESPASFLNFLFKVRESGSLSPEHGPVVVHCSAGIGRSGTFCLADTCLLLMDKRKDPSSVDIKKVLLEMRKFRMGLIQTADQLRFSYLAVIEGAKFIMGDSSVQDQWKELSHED
The experiment can be described thus: Phosphatase Inhibition Assay. To be noted: for IC50: pH 7, 22 °C. As for the experimental part: The activity of PTP1B enzyme was assayed with DiFMUP as substrate. Hydrolysis of substrate was monitored on a Victor V plate reader (Wallac). Kinetic measurements were measured using 3-5 concentrations of inhibitor around the IC50 over a range of substrate concentrations (3-500 uM). Data were used to determine Km/Ki/competitive inhibition using GraphPad Prism software.

`Cn1nc(-c2ccccc2)cc1NS(=O)(=O)O` [N-(1-methyl-3-phenyl-1H-pyrazol-5-yl)sulfamic acid] gave a Ki of over 500 µM.

For the compound `CNC(=O)[C@@H]1Cc2ccc(NS(=O)(=O)O)cc2CN1C(=O)C=Cc1coc2ccccc12` [ammonium N-[(3S)-2-[(2E)-3-(1-benzofuran-3-yl)prop-2-enoyl]-3-(methylcarbamoyl)-1,2,3,4-tetrahydroisoquinolin-7-yl]sulfamate], half-maximal inhibition (IC50) required 24.9 µM.

`CNC(=O)[C@@H]1Cc2ccc(NS(=O)(=O)O)cc2CN1C(=O)N[C@@H](Cc1ccccc1)C(=O)OC(C)(C)C` [ammonium N-[(3S)-2-{[(2S)-1-(tert-butoxy)-1-oxo-3-phenylpropan-2-yl]carbamoyl}-3-(methylcarbamoyl)-1,2,3,4-tetrahydroisoquinolin-7-yl]sulfamate] showed an IC50 of over 500 µM.
